Data: ChEMBL document CHEMBL3399966, “Isosteric replacements of the carboxylic acid of drug candidate VX-787: Effect of charge on antiviral potency and kinase activity of azaindole-based influenza PB2 inhibitors” (Bioorg Med Chem Lett, 2015)

Assays:
[1] = target: Vascular endothelial growth factor receptor 2 (Homo sapiens, UniProt P35968); assay: Inhibition of KDR (unknown origin)
[2] = target: Phosphatidylinositol 4,5-bisphosphate 3-kinase catalytic subunit gamma isoform (Homo sapiens, UniProt P48736); assay: Inhibition of PI3Kgamma (unknown origin)
Sequence of Phosphatidylinositol 4,5-bisphosphate 3-kinase catalytic subunit gamma isoform (P48736 whole entry, canonical isoform): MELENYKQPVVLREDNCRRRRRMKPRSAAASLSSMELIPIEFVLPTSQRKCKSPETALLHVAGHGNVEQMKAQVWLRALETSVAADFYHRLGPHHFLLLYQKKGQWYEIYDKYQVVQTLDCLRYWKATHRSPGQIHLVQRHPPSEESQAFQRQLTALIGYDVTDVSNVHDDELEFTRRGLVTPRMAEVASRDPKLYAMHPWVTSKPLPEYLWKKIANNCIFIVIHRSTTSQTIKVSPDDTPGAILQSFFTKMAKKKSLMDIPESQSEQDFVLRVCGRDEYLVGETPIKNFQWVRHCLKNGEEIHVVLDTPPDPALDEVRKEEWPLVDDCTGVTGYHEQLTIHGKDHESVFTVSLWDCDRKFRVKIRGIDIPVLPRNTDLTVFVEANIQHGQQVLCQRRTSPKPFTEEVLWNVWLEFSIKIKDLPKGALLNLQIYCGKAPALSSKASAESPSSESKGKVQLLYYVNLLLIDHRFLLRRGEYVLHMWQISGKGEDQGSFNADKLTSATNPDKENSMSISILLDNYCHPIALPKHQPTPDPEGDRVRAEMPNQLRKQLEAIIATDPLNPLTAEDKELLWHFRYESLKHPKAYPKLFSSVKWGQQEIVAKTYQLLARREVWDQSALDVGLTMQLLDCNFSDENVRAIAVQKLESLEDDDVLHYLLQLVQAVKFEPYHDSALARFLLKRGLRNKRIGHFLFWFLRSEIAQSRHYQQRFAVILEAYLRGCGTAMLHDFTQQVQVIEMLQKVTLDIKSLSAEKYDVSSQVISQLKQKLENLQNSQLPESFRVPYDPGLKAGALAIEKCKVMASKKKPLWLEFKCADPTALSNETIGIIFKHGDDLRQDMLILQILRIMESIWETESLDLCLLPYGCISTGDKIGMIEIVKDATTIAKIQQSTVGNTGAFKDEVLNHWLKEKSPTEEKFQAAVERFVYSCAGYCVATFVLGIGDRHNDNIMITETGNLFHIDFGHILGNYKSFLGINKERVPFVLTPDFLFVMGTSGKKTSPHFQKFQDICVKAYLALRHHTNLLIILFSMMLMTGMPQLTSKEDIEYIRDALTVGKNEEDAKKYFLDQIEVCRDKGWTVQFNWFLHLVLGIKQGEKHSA

[3] = target: Phosphatidylinositol 4,5-bisphosphate 3-kinase catalytic subunit alpha isoform (Homo sapiens, UniProt P42336); assay: Inhibition of PI3Kalpha (unknown origin)
[4] = target: Serine/threonine-protein kinase PLK1 (Homo sapiens, UniProt P53350); assay: Inhibition of PLK (unknown origin)
[5] = target: Mitogen-activated protein kinase 10 (Homo sapiens, UniProt P53779); assay: Inhibition of JNK3 (unknown origin)
Sequence of Mitogen-activated protein kinase 10 (P53779 whole entry): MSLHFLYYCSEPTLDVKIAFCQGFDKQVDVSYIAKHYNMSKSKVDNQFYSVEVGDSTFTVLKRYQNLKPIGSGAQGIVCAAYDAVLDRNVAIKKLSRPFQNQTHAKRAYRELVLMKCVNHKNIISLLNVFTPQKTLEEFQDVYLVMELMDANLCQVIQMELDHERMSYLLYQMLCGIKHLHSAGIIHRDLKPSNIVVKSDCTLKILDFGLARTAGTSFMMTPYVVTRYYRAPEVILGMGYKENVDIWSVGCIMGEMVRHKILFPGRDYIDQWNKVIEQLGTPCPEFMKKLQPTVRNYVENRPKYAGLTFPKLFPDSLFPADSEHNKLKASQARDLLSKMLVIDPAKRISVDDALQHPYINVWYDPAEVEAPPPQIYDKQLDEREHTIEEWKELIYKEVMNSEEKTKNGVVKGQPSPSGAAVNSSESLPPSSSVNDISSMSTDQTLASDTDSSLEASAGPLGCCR

Influenza A virus [6] = assay: Antiviral activity against Influenza A virus A/PR/8/34 strain incubated with MDCK cells assessed as cell protection after 72 hrs by phenotypic cell protection assay; type: functional, organism-based; conditions: A/Puerto Rico/8/1934(H1N1)
[7] = Dissociation constant, pKa of the compound by UC titration method; type: physicochemical
[8] = target: Tyrosine-protein kinase SYK (Homo sapiens, UniProt P43405); assay: Inhibition of SYK (unknown origin)
[9] = target: Glycogen synthase kinase-3 (Homo sapiens, UniProt P49840+P49841); assay: Inhibition of GSK3 (unknown origin); type: protein assay
[10] = target: T1, Receptor-type tyrosine-protein kinase FLT3 (Homo sapiens, UniProt P36888); assay: Inhibition of FLT3 (unknown origin)
T1 sequence (P36888 whole entry): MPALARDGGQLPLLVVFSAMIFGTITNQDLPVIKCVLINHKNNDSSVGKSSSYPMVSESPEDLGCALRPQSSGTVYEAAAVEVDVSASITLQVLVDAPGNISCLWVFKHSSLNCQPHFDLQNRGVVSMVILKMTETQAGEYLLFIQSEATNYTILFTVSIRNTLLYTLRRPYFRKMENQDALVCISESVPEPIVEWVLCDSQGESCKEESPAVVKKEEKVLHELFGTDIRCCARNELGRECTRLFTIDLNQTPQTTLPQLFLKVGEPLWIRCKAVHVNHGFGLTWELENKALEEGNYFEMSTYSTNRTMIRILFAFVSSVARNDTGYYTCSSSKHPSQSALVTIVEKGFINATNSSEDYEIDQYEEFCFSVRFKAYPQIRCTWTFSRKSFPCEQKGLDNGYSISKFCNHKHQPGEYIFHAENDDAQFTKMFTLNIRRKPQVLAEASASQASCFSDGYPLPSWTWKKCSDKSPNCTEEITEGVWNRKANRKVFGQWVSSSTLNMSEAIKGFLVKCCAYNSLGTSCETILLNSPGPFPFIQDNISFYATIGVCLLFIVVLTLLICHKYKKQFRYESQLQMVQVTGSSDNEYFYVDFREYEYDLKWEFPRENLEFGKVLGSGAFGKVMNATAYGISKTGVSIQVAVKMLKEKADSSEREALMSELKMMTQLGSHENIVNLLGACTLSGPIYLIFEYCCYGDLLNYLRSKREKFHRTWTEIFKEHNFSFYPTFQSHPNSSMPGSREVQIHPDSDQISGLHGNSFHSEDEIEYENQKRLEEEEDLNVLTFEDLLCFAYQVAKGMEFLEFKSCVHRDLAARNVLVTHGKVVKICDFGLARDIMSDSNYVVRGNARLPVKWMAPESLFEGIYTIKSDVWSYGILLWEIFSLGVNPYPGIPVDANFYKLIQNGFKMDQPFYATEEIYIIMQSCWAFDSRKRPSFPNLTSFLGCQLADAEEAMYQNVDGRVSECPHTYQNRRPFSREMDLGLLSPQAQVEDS

Influenza A virus [11] = assay: Antiviral activity against influenza A virus A/PR/8/34 strain incubated with MDCK cells assessed as reduction of viral RNA level equal to 1% of control level after 72 hrs by branched DNA assay; type: functional, organism-based; conditions: A/Puerto Rico/8/1934(H1N1)
[12] = target: Rho-associated protein kinase (Homo sapiens, UniProt O75116+Q13464); assay: Inhibition of ROCK (unknown origin); type: protein-complex assay
[13] = target: Proto-oncogene tyrosine-protein kinase Src (Homo sapiens, UniProt P12931); assay: Inhibition of SRC (unknown origin)
Sequence of Proto-oncogene tyrosine-protein kinase Src (P12931 2-536 limits assumed): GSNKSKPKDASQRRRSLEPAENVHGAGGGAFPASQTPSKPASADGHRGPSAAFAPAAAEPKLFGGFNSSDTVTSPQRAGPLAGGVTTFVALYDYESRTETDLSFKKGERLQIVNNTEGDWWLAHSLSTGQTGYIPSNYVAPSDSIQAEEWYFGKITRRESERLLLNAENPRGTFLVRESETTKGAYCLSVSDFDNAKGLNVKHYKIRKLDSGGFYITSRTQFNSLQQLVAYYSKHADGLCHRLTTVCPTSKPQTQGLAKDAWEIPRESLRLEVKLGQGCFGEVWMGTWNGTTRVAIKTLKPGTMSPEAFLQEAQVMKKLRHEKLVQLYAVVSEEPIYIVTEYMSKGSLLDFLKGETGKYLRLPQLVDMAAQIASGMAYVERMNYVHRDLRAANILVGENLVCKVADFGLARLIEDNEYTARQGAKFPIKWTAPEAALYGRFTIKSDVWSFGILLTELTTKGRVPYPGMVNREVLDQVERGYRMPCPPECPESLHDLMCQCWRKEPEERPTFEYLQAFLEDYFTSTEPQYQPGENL

[14] = target: T2, Interleukin-1 receptor-associated kinase 4 (Homo sapiens, UniProt Q9NWZ3); assay: Inhibition of IRAK4 (unknown origin)
T2 sequence (Q9NWZ3 whole entry): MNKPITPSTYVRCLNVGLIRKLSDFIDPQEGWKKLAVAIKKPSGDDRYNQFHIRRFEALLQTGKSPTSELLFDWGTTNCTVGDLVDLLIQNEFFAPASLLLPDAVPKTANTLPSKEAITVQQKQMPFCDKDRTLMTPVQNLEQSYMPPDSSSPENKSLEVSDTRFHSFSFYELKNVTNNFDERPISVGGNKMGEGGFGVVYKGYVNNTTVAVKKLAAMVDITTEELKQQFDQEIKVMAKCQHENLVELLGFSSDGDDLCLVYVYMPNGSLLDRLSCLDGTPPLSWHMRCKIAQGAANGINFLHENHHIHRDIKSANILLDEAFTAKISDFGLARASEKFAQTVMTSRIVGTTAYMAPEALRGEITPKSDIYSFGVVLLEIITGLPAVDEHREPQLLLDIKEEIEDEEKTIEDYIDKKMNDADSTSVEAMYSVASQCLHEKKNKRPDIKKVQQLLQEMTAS

[15] = target: Phosphatidylinositol 4,5-bisphosphate 3-kinase catalytic subunit beta isoform (Homo sapiens, UniProt P42338); assay: Inhibition of PI3Kbeta (unknown origin)
[16] = target: cAMP-dependent protein kinase catalytic subunit alpha (Homo sapiens, UniProt P17612); assay: Inhibition of PKAa (unknown origin)
[17] = target: Hepatocyte growth factor receptor (Homo sapiens, UniProt P08581); assay: Inhibition of MET (unknown origin)
Sequence of Hepatocyte growth factor receptor (P08581 whole entry, canonical isoform): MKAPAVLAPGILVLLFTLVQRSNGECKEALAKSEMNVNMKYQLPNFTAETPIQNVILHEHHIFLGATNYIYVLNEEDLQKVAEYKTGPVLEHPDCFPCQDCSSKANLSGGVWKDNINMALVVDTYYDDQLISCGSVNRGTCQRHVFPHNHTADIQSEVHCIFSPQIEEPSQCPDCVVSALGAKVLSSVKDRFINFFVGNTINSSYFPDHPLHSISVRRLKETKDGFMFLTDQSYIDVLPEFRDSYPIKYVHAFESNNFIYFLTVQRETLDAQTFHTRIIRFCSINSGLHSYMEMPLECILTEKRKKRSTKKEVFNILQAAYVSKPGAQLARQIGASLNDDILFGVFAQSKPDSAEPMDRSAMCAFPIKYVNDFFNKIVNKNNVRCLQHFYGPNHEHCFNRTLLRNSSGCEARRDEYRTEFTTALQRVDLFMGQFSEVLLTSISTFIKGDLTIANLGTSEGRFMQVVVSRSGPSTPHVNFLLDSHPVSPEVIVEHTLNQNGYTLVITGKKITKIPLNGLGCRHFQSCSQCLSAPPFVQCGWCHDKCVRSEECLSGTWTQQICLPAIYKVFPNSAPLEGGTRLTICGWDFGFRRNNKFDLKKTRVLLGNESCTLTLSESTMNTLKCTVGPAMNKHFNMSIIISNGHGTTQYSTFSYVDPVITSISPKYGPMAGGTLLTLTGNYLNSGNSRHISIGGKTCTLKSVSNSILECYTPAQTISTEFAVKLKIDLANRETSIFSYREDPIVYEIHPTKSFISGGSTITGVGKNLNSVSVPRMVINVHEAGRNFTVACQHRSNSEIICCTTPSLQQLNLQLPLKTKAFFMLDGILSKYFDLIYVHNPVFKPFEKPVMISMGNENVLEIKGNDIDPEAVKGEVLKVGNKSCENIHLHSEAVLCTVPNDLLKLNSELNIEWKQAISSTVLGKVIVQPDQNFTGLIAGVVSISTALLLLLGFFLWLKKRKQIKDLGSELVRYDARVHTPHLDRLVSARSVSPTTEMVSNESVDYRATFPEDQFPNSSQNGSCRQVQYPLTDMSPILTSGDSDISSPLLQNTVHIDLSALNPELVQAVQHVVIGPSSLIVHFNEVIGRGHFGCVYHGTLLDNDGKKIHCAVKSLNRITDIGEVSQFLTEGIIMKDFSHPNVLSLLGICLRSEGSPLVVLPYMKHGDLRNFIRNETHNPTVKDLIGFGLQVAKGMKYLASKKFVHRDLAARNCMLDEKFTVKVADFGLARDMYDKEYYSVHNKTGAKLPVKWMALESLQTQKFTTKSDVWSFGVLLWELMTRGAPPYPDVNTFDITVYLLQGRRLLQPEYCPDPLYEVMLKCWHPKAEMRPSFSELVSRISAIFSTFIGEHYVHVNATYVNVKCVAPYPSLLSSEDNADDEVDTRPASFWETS

[18] = target: T3, Phosphatidylinositol 4,5-bisphosphate 3-kinase catalytic subunit delta isoform (Homo sapiens, UniProt O00329); assay: Inhibition of PI3Kdelta (unknown origin)
T3 sequence (O00329 whole entry): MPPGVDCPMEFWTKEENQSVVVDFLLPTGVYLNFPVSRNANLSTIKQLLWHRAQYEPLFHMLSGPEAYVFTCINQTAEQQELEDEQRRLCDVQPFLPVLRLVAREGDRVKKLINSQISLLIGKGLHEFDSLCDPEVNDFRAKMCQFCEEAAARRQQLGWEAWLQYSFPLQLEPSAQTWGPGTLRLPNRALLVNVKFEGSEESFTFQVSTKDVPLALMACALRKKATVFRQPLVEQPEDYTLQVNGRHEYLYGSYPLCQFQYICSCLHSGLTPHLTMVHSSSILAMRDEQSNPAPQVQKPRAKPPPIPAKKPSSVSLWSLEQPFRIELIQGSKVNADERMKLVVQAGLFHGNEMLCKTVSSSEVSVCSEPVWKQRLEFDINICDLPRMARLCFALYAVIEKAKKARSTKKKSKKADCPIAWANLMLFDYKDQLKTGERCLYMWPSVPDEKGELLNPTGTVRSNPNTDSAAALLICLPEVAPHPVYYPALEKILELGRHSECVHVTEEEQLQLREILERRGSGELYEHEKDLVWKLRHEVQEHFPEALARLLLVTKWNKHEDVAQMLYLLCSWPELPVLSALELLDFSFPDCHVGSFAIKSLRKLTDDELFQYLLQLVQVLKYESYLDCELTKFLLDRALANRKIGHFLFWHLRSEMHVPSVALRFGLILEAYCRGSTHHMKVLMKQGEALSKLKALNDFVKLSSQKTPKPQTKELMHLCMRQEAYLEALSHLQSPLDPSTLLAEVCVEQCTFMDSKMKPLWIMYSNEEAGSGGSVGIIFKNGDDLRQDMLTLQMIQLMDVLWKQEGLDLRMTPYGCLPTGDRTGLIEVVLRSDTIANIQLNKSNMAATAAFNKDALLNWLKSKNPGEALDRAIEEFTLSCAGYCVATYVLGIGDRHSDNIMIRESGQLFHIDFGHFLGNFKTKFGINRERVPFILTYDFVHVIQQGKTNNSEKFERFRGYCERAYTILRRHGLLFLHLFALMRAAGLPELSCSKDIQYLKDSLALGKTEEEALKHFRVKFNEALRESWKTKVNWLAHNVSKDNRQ

[19] = target: Cyclin-dependent kinase 2 (Homo sapiens, UniProt P24941); assay: Inhibition of CDK2 (unknown origin)
[20] = target: Tyrosine-protein kinase JAK2 (Homo sapiens, UniProt O60674); assay: Inhibition of JAK2 (unknown origin)
Sequence of Tyrosine-protein kinase JAK2 (O60674 whole entry): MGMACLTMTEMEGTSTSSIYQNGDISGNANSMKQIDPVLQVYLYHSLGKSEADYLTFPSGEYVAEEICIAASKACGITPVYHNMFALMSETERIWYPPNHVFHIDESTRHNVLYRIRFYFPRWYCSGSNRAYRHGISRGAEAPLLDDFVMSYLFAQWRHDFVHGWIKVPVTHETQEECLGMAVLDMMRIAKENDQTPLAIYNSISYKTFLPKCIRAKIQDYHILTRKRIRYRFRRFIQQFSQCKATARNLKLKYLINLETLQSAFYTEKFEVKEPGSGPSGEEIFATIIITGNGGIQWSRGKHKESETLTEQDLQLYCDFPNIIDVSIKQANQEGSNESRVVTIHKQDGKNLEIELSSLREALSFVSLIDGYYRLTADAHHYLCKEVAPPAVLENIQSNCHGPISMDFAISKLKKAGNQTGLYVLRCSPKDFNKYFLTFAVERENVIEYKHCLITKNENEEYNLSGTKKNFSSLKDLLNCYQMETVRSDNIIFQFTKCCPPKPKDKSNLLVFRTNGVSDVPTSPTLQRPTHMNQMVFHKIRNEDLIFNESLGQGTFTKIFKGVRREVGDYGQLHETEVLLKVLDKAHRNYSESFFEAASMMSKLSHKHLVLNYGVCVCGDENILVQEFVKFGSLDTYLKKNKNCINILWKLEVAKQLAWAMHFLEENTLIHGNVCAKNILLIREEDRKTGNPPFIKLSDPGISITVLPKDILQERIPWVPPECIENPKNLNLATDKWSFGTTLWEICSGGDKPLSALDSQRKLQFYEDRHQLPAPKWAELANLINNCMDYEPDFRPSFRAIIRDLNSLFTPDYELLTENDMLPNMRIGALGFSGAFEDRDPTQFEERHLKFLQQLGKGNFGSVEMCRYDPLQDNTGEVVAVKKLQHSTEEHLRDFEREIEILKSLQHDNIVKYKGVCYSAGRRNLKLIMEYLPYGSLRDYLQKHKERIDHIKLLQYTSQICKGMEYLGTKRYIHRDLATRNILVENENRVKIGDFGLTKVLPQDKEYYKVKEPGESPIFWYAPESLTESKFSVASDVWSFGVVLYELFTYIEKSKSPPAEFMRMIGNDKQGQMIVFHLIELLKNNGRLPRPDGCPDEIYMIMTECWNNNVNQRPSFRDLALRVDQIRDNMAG

In the case of `O=c1[nH]c(=O)n(C[C@H]2C3CCC(CC3)[C@@H]2Nc2nc(-c3c[nH]c4ncc(F)cc34)ncc2F)o1` (mixture of isomers), the Ki [1] is reported as > 4000 nM, the Ki [2] is reported as 630 nM and the Ki [3] is reported as 1500 nM. For the same molecule, the Ki [4] was 1100 nM, the Ki [5] was > 4000 nM and the IC50 (Influenza A virus [6]) was 48 nM. The pKa [7] was 5.2, the Ki [8] was > 4000 nM and the Ki [9] was 23 nM. It also gave a Ki [10] of 210 nM, an EC50 (Influenza A virus [11]) of 36 nM and an EC99 (Influenza A virus [11]) of 0.21 µM. The Ki [12] was > 4000 nM, the Ki [13] was > 4000 nM and the Ki [14] was > 4000 nM. The Ki [15] was 2000 nM, the Ki [16] was > 4000 nM and the Ki [17] was > 4000 nM. For the same molecule, the Ki [18] was 180 nM, the Ki [19] was > 4000 nM and the Ki [20] was 270 nM.
